Data published in patent US20220088016A1, “CANCER TREATMENT USING MULTI-TARGETED KINASE INHIBITOR IN COMBINATION OF PROTEIN KINASE BIOMARKERS” (ZHEJIANG CROWNMAB BIOTECH CO. LTD., priority 2019, published 2022).

Key:
Test in all cases: Kinase profiling
Format in all cases: binding
Conditions in all cases: read-out: % Ctrl @ 1000 nM
[1] = target: VEGFR2 (Homo sapiens, UniProt P35968)
[2] = target: DYRK1B (Homo sapiens, UniProt Q9Y463)
[3] = target: T1, NEK4 (Homo sapiens, UniProt P51957)
T1 construct: T7 phage fusion (said for most assays); made in house
T1 sequence (P51957 whole entry, the tested form may be a part): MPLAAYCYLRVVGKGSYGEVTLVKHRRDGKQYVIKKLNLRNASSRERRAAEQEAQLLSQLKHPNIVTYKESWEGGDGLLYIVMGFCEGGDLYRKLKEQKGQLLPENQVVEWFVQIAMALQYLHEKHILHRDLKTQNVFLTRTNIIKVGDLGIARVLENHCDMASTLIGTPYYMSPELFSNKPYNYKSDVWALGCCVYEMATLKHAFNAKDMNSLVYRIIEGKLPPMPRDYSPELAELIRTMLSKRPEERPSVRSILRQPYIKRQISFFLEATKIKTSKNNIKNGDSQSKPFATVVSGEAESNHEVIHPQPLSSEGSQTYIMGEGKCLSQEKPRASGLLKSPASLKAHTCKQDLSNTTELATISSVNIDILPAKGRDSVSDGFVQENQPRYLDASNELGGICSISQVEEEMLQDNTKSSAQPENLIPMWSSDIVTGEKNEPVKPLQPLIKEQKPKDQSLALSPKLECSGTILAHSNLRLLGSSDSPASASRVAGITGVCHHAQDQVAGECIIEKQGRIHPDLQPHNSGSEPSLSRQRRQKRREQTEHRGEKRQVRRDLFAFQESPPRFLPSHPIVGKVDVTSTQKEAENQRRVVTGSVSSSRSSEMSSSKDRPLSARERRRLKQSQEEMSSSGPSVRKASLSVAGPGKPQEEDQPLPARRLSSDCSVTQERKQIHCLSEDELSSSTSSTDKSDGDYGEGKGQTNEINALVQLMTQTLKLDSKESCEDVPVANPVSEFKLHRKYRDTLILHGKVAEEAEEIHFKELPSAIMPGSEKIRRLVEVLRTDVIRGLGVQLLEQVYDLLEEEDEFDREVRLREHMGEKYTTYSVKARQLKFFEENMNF

[4] = target: CAMK2B (Homo sapiens, UniProt Q13554)
[5] = target: PHKG1 (Homo sapiens, UniProt Q16816)
[6] = target: PRKCQ (Homo sapiens, UniProt Q04759)
[7] = target: TIE1 (Homo sapiens, UniProt P35590)
[8] = target: TGFBR1 (Homo sapiens, UniProt P36897)
[9] = target: AURKC (Homo sapiens, UniProt Q9UQB9)
Sequence of AURKC (Q9UQB9 whole entry): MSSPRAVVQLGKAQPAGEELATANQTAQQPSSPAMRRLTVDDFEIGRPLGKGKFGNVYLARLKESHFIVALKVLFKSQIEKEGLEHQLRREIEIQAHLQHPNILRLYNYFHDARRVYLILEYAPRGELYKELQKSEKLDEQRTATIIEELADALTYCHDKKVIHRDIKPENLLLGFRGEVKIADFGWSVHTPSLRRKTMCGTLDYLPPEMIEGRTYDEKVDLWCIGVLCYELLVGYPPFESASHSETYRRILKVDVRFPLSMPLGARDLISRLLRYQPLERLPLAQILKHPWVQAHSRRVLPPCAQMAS

[10] = target: PAK2 (Homo sapiens, UniProt Q13177)
[11] = target: SGK2 (Homo sapiens, UniProt Q9HBY8)
Sequence of SGK2 (Q9HBY8 whole entry): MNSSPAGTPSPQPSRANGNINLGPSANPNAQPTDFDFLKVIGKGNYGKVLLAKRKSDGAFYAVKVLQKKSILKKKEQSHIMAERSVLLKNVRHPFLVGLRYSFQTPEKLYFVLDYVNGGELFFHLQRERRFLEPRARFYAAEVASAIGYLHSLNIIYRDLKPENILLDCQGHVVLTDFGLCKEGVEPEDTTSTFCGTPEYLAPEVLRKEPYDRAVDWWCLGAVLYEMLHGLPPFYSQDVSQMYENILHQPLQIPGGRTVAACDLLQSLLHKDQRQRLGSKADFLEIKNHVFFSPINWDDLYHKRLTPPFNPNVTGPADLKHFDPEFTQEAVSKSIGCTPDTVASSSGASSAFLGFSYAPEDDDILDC

[12] = target: CSF1R (Homo sapiens, UniProt P07333)
[13] = target: ITK (Homo sapiens, UniProt Q08881)
Sequence of ITK (Q08881 whole entry): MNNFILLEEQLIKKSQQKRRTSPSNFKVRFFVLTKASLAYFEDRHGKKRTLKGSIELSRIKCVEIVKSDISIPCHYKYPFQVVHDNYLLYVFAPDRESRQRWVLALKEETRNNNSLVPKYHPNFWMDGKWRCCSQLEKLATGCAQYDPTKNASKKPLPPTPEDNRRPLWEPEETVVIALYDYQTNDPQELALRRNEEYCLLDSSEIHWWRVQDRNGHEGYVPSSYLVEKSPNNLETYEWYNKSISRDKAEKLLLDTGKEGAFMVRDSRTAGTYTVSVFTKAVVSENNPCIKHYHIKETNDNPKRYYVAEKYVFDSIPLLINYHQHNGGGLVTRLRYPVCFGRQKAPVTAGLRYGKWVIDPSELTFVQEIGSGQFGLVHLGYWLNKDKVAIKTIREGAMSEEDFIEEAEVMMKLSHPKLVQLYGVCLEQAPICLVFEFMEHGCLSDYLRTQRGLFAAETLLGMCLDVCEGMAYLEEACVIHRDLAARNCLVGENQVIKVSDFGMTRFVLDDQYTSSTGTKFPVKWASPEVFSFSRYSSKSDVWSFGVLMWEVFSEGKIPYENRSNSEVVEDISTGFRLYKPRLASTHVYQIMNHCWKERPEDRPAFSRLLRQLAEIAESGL

[14] = target: IGF1R (Homo sapiens, UniProt P08069)
[15] = target: T2, MET (Y1235D) (Homo sapiens, UniProt P08581, Y1235D)
T2 construct: T7 phage fusion (stated for most kinases of the panel only); made in house; host or cells: T7 phage in E. coli (BL21-derived) or HEK-293 cells

[16] = target: SRPK1 (Homo sapiens, UniProt Q96SB4)
Sequence of SRPK1 (Q96SB4 whole entry): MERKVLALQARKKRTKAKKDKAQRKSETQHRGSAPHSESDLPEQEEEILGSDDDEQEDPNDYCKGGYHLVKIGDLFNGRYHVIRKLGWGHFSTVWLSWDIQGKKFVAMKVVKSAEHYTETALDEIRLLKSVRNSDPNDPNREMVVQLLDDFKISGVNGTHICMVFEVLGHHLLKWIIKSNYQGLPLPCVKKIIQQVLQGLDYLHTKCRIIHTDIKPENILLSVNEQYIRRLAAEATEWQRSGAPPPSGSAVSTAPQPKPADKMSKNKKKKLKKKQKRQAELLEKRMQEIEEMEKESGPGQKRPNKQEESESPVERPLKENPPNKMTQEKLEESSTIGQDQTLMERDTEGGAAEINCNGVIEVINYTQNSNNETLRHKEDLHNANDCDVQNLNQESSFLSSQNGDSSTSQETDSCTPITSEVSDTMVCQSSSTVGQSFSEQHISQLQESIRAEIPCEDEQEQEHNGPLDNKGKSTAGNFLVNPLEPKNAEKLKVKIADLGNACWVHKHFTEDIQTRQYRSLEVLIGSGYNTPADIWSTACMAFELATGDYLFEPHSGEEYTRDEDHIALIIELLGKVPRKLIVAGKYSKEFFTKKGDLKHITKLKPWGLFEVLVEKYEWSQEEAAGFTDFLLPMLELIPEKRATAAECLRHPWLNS

[17] = target: T3, NDR1 (Homo sapiens, UniProt Q15208)
T3 construct: T7 phage fusion (said for most assays); made in house

[18] = target: TSSK1B (Homo sapiens, UniProt Q9BXA7)
Sequence of TSSK1B (Q9BXA7 whole entry): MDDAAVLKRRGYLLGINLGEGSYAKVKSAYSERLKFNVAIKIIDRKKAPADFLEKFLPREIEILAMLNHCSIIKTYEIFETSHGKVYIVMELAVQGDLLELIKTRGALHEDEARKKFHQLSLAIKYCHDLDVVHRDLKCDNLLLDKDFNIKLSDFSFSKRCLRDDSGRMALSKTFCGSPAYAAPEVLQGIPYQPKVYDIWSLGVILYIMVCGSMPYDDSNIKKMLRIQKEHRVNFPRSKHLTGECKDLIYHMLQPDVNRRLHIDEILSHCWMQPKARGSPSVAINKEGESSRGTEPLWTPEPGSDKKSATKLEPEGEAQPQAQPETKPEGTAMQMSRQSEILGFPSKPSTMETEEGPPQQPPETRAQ

[19] = target: STK16 (Homo sapiens, UniProt O75716)
[20] = target: T4, MLK1 (Homo sapiens, UniProt P80192)
T4 construct: T7 phage fusion (stated for most kinases of the panel only); made in house; host or cells: T7 phage in E. coli (BL21-derived) or HEK-293 cells
T4 sequence (P80192 whole entry, the tested form may be a part): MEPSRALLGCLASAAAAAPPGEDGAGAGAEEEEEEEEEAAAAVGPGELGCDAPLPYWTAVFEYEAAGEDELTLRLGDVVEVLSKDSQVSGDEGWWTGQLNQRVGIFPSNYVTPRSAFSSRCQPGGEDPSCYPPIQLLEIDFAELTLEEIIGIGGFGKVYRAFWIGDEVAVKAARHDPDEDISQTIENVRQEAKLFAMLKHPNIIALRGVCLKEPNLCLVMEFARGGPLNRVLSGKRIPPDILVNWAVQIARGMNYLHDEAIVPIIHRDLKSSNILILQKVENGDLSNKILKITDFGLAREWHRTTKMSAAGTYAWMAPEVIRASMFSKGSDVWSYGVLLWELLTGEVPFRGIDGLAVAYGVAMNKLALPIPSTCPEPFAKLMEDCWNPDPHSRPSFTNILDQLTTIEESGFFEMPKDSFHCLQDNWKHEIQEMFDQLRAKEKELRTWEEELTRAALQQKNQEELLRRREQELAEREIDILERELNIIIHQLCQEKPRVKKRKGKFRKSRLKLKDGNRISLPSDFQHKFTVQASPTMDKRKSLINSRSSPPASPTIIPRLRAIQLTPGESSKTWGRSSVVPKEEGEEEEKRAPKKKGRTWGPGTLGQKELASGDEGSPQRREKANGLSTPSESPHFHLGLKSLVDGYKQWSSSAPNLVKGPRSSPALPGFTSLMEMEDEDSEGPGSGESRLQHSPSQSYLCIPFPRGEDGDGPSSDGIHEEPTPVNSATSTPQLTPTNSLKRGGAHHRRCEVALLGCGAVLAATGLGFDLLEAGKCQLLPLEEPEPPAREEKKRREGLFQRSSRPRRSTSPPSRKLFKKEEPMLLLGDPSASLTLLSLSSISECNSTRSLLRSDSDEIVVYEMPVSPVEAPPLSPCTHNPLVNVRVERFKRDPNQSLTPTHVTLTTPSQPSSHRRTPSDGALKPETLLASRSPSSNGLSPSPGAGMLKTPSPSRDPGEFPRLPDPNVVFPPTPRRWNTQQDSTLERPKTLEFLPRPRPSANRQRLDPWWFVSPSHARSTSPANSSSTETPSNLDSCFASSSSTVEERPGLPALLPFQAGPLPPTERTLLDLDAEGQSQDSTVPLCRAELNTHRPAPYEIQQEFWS

[21] = target: FLT3 (D835V) (Homo sapiens, UniProt P36888, D835V)
[22] = target: AKT2 (Homo sapiens, UniProt P31751)
[23] = target: BRSK1 (Homo sapiens, UniProt Q8TDC3)
[24] = target: MAP3K15 (Homo sapiens, UniProt Q6ZN16)
[25] = target: KIT (V559D, T670I) (Homo sapiens, UniProt P10721, T670I/V559D)
[26] = target: T5, MYLK4 (Homo sapiens, UniProt Q86YV6)
T5 construct: T7 phage fusion (said for most assays); made in house

[27] = target: TLK2 (Homo sapiens, UniProt Q86UE8)
[28] = target: EGFR (L747-S752del, P753S) (Homo sapiens, UniProt P00533, DEL747-752/P753S)
[29] = target: BMPR1B (Homo sapiens, UniProt O00238)
Sequence of BMPR1B (O00238 14-502): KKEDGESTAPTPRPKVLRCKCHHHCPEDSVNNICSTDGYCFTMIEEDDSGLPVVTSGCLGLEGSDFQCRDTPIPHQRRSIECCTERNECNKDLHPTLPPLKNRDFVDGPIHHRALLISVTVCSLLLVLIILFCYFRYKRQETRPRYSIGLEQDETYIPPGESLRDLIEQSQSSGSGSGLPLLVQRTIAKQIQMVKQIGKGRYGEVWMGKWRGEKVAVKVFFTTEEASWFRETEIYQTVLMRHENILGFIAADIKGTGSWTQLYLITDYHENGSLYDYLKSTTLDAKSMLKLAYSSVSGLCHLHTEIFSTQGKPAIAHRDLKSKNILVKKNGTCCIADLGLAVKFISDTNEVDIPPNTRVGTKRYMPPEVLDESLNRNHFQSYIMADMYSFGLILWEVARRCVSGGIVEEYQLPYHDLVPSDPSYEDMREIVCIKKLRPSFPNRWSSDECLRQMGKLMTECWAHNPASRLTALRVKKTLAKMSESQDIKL

[30] = target: HPK1 (Homo sapiens, UniProt Q92918)
[31] = target: ADCK3 (Homo sapiens, UniProt Q8NI60)
[32] = target: YANK1 (Homo sapiens, UniProt Q8WU08)
[33] = target: KIT (D816V) (Homo sapiens, UniProt P10721, D816V)
[34] = target: SIK2 (Homo sapiens, UniProt Q9H0K1)
[35] = target: DDR1 (Homo sapiens, UniProt Q08345)
[36] = target: PLK2 (Homo sapiens, UniProt Q9NYY3)
[37] = target: VPS34 (Homo sapiens, UniProt Q8NEB9)
[38] = target: T6, MYLK2 (Homo sapiens, UniProt Q9H1R3)
T6 construct: T7 phage fusion (said for most assays); made in house

[39] = target: CDC2L1 (Homo sapiens, UniProt P21127)

`Cc1cc(Oc2cc(NC(=O)C3CC3)ncn2)ccc1NC(=O)Nc1ccc(Cl)c(C(F)(F)F)c1` [CBT-102] was tested, and the remaining activity at 1 µM [1] was 1.4%, the remaining activity at 1 µM [2] was 100% and the remaining activity at 1 µM [3] was 93%. The remaining activity at 1 µM [4] was 97%, the remaining activity at 1 µM [5] was 96% and the remaining activity at 1 µM [6] was 95%. It also gave a remaining activity at 1 µM [7] of 20%, a remaining activity at 1 µM [8] of 100% and a remaining activity at 1 µM [9] of 33%. The remaining activity at 1 µM [10] was 94%, the remaining activity at 1 µM [11] was 92% and the remaining activity at 1 µM [12] was 0%. It also gave a remaining activity at 1 µM [13] of 90%, a remaining activity at 1 µM [14] of 95% and a remaining activity at 1 µM [15] of 79%. The remaining activity at 1 µM [16] was 56%, the remaining activity at 1 µM [17] was 94% and the remaining activity at 1 µM [18] was 87%. For the same compound, the remaining activity at 1 µM [19] was 100%, the remaining activity at 1 µM [20] was 94% and the remaining activity at 1 µM [21] was 95%. It also gave a remaining activity at 1 µM [22] of 100%, a remaining activity at 1 µM [23] of 95% and a remaining activity at 1 µM [24] of 99%. For the same compound, the remaining activity at 1 µM [25] was 0.3%, the remaining activity at 1 µM [26] was 100% and the remaining activity at 1 µM [27] was 100%. For the same compound, the remaining activity at 1 µM [28] was 85%, the remaining activity at 1 µM [29] was 99% and the remaining activity at 1 µM [30] was 23%. For the same compound, the remaining activity at 1 µM [31] was 100%, the remaining activity at 1 µM [32] was 98% and the remaining activity at 1 µM [33] was 18%. It also gave a remaining activity at 1 µM [34] of 100%, a remaining activity at 1 µM [35] of 0.3% and a remaining activity at 1 µM [36] of 93%. The remaining activity at 1 µM [37] was 80%, the remaining activity at 1 µM [38] was 98% and the remaining activity at 1 µM [39] was 36%.
